In US9271978B2 (Zenith Epigenetics Corp., priority 2012, dated 2016):

What was measured:
Parameters in all cases: key: Active: Compounds with an IC50 value less than 30 μM were deemed to be active.; Not Active: Compounds with an IC50 value less than 30 μM were deemed to be active
[1] = biological target: T1, Brd4 bromodomain 1 (BRD4(1)) (Homo sapiens, UniProt O60885); test: Inhibition of tetra-acetylated histone H4 binding to Brd4 bromodomain 1 (TR-FRET); details: tetra-acetylated histone H4 peptide, active = IC50 <30 μM
T1 construct: Illustrative results with the first bromodomain of Brd4; made in house; host or cells: E. coli BL21 (DE3)
Summary of the method: (§1)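 IC50 values come from dose-response curves of the 665 nm to 620 nm TR-FRET signal decrease, measured after 2 h at room temperature. Reactions contained 200 nM E. coli-expressed His-tagged bromodomain, 25-50 nM biotinylated tetra-acetylated H4 peptide, Eu-streptavidin plus XL665 anti-His antibody, with 30 mM HEPES pH 7.4, 320 mM KF and 0.2% DMSO.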

[2] = biological target: T2, second bromodomain of Brd2 (BRD2(2)) (Homo sapiens, UniProt P25440); test: Inhibition of tetra-acetylated histone H4 binding to Brd2 bromodomain 2 (TR-FRET); details: tetra-acetylated histone H4 peptide, active = IC50 <30 μM
T2 construct: made in house; host or cells: E. coli BL21 (DE3)
Summary of the method: as §1

[3] = tested on: c-myc; test: Inhibition of c-myc expression in MV4-11 cells (mRNA, real-time PCR); assay type: cell-based; details: Human AML MV4-11 cells, 3 h incubation
Experimental: MV4-11 cells (2.5×10^4 cells) were plated in 96 well U-bottom plates with test compound or DMSO (0.1%), and incubated for 3 h at 37° C. Cells were then harvested by centrifugation, lysed, and mRNA was isolated using the mRNA catcher plus kit (Invitrogen). Reverse transcription of the mRNA and duplex amplification of the c-myc and cyclophilin cDNAs was performed using the RNA Ultrasense kit (Invitrogen) and a ViiA7 real-time PCR machine (Applied Biosystems). IC50 values were determined from a dose response curve.

[4] = tested on: human AML MV-4-11 (CRL-9591) cells; test: Inhibition of cell proliferation in MV4-11 cells; assay type: cell-based; details: human AML MV-4-11 cells, 72 h; active = IC50 <30 μM
Summary of the method: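 IC50 values come from blank-corrected proliferation relative to DMSO controls, read as 490 nm absorbance 3–4 h after CellTiter Aqueous One addition. Before that, cells seeded at 5×10^4/well were exposed for 72 h (37° C, 5% CO2) to triplicate two-fold compound dilutions spanning 30–0.2 μM.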

[5] = tested on: hIL-6 mRNA; test: Inhibition of hIL-6 mRNA transcription in U937 cells; assay type: cell-based, human; details: LPS stimulation, active = IC50 <30 μM
Summary of the method: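 Readout is one-step real-time PCR of hIL-6 mRNA, normalized to an internal control and given as fold induction versus control. Cells: PMA (60 ng/mL, 3 days)-differentiated U937 macrophages, compound added 1 h before 1 ug/mL LPS, harvested after 3 h at 37° C.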

T2 sequence (P25440 344-453 limits assumed): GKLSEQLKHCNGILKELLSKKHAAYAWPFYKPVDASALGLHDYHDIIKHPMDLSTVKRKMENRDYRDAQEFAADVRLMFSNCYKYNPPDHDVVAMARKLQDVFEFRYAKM

Row | SMILES | FRET activity (IC50 <30 μM) BRD4(1) [1] | FRET activity (IC50 <30 μM) BRD2(2) [2] | c-myc activity (IC50 <30 μM) [3] | Cell Proliferation activity (IC50 <30 μM) [4] | IL-6 activity (IC50 <30 μM) [5]
1 | Cc1noc(C)c1-c1ccc(=O)n(Cc2ccc(Cl)cc2)n1 [Example 25, 2-(4-Chlorobenzyl)-6-(3,5-dimethylisoxazol-4-yl)pyridazin-3(2H)-one] | Active | Active | Active | Active | Active
2 | Cc1noc(C)c1-c1ccc(=O)n(Cc2ccc(C#N)cc2)c1 [Example 137, 4-((5-(3,5-Dimethylisoxazol-4-yl)-2-oxopyridin-1(2H)-yl)methyl)benzonitrile] | Active | Active | Active | Active | Active
3 | Cc1ccccc1Cn1nc(-c2c(C)noc2C)ccc1=O [Example 28] | Active | Active | Active | Active | Active
4 | Cc1noc(C)c1-c1ccc(=O)n(Cc2ccc(C(F)(F)F)cc2)n1 [Example 91, 6-(3,5-Dimethylisoxazol-4-yl)-2-(4-(trifluoromethyl)benzyl)pyridazin-3(2H)-one] | Active | Active | Not Active | Active | Not Active
5 | COc1ccc(Nc2ccc(=O)n(Cc3ccccc3)c2)cc1OC [Example 65, 1-Benzyl-5-((3,4-dimethoxyphenyl)amino)pyridin-2(1H)-one] | Active | Active | Active | Active | Active
6 | COc1ccc(-c2nn(Cc3ccccc3)c(=O)c3ccccc23)c(O)c1OC [Example 164, 2-Benzyl-4-(2-hydroxy-3,4-dimethoxyphenyl)phthalazin-1(2H)-one] | Active | Active | Not Active | Active | Not Active
7 | COc1cccc(Cn2cc(-c3c(C)noc3C)ccc2=O)c1 [Example 78, 5-(3,5-Dimethylisoxazol-4-yl)-1-(3-methoxybenzyl)pyridin-2(1H)-one] | Active | Active | Active | Active | Active
8 | Cc1noc(C)c1-c1ccc(=O)n(Cc2ccccc2F)n1 [Example 93, 6-(3,5-Dimethylisoxazol-4-yl)-2-(2-fluorobenzyl)pyridazin-3(2H)-one] | Active | Active | Not Active | Active | Not Active
9 | Cc1noc(C)c1-c1ccc(=O)n(CCc2ccccc2)n1 [Example 1, 6-(3,5-Dimethylisoxazol-4-yl)-2-phenethylpyridazin-3(2H)-one] | Active | Active | Not Active | Not Active | Not Active
10 | Cc1noc(N)c1-c1ccc(=O)n(Cc2ccccc2)c1 [Example 98, 5-(5-Amino-3-methylisoxazol-4-yl)-1-benzylpyridin-2(1H)-one trifluoroacetic acid] | Active | Active | Not Active | Active | Active
11 | Cc1noc(C)c1-c1cc(F)c(=O)n(Cc2ccccc2)c1 [Example 63, 1-Benzyl-5-(3,5-dimethylisoxazol-4-yl)-3-fluoropyridin-2(1H)-one] | Active | Active | Active | Active | Active
12 | Cc1noc(C)c1-c1ccc(=O)n(Cc2ccccc2C(F)(F)F)c1 [Example 123, 5-(3,5-Dimethylisoxazol-4-yl)-1-(2-(trifluoromethyl)benzyl)pyridin-2(1H)-one] | Active | Active | Active | Active | Active
13 | Cc1cccc(Cn2cc(-c3c(C)noc3C)ccc2=O)c1 [Example 122, 5-(3,5-Dimethylisoxazol-4-yl)-1-(3-methylbenzyl)pyridin-2(1H)-one] | Active | Active | Active | Active | Active
14 | Cc1noc(C)c1-c1ccc(=O)n([C@@H](C)c2ccccc2)c1 [Example 133, (S)-5-(3,5-Dimethylisoxazol-4-yl)-1-(1-phenylethyl)pyridin-2(1H)-one] | Active | Active | Active | Not Active | Not Active
15 | Cc1onc(N)c1-c1ccc(=O)n(Cc2ccccc2)c1 [Example 151, 5-(3-Amino-5-methylisoxazol-4-yl)-1-benzylpyridin-2(1H)-one] | Active | Active | Not Active | Active | Active
16 | Cc1noc(C)c1-c1cc(C)c(=O)n(Cc2ccccc2)n1 [Example 21, 2-Benzyl-6-(3,5-dimethylisoxazol-4-yl)-4-methylpyridazin-3(2H)-one] | Active | Active | Active | Not Active | Active
17 | Cc1noc(C)c1-c1ccc(=O)n(Cc2ccccc2C#N)n1 [Example 24, 2-((3-(3,5-Dimethylisoxazol-4-yl)-6-oxopyridazin-1(6H)-yl)methyl)benzonitrile] | Active | Active | Not Active | Active | Not Active
18 | Cc1noc(C)c1-c1ccc(=O)n(C(C)c2ccc(F)cc2)c1 (stereo not shown) [Example 101, 5-(3,5-Dimethylisoxazol-4-yl)-1-(1-(4-fluorophenyl)ethyl)pyridin-2(1H)-one] | Active | Active | Active | Active | Active
19 | Cc1noc(C)c1-c1ccc(=O)n(Cc2c(F)cccc2Cl)n1 [Example 96, 2-(2-Chloro-6-fluorobenzyl)-6-(3,5-dimethylisoxazol-4-yl)pyridazin-3(2H)-one] | Active | Active | Active | Active | Active
20 | Cc1noc(C)c1-c1ccc(=O)n(Cc2cccc(Cl)c2)c1 [Example 126, 1-(3-Chlorobenzyl)-5-(3,5-dimethylisoxazol-4-yl)pyridin-2(1H)-one] | Active | Active | Active | Active | Active
